Assays:
Type in all cases: functional
[1] = Cytotoxicity against human HOP62 cells assessed as cell growth at 10 uM after 48 hrs by SRB assay; conditions: HOP-62, 48 h, read-out: Activity
[2] = test system: T47D; assay: Cytotoxicity against human T47D cells assessed as cell growth at 10 uM after 48 hrs by SRB assay; conditions: read-out: Activity
[3] = Cytotoxicity against human TK10 cells assessed as cell growth at 10 uM after 48 hrs by SRB assay; conditions: TK-10, 48 h, read-out: Activity
[4] = Cytotoxicity against human HOP92 cells assessed as cell growth at 10 uM after 48 hrs by SRB assay; conditions: HOP-92, 48 h, read-out: Activity
[5] = test system: NCI-H23; assay: Cytotoxicity against human NCI-H23 cells assessed as cell growth at 10 uM after 48 hrs by SRB assay; conditions: NCI-H23, 48 h, read-out: Activity
[6] = test system: SK-MEL-5; assay: Cytotoxicity against human SK-MEL-5 cells assessed as cell growth at 10 uM after 48 hrs by SRB assay; conditions: SK-MEL-5, 48 h, read-out: Activity
[7] = Cytotoxicity against human Hs 578T cells assessed as cell growth at 10 uM after 48 hrs by SRB assay; conditions: read-out: Activity
[8] = test system: NCI-H522; assay: Cytotoxicity against human NCI-H522 cells assessed as cell growth at 10 uM after 48 hrs by SRB assay; conditions: NCI-H522, 48 h, read-out: Activity
[9] = Cytotoxicity against human SF268 cells assessed as cell growth at 10 uM after 48 hrs by SRB assay; conditions: SF-268, 48 h, read-out: Activity
[10] = test system: SK-MEL-2; assay: Cytotoxicity against human SK-MEL-2 cells assessed as cell growth at 10 uM after 48 hrs by SRB assay; conditions: SK-MEL-2, 48 h, read-out: Activity
[11] = Cytotoxicity against human IGROV1 cells assessed as cell growth at 10 uM after 48 hrs by SRB assay; conditions: IGROV-1, 48 h, read-out: Activity
[12] = test system: NCI-H226; assay: Cytotoxicity against human NCI-H226 cells assessed as cell mortality at 7.25 uM after 48 hrs by SRB assay; conditions: NCI-H226, 48 h
[13] = Cytotoxicity against human SF539 cells assessed as cell growth at 7.25 uM after 48 hrs by SRB assay; conditions: SF-539, 48 h, read-out: Activity
[14] = Cytotoxicity against human BT549 cells assessed as cell growth at 7.25 uM after 48 hrs by SRB assay; conditions: BT-549, 48 h, read-out: Activity
[15] = Cytotoxicity against human DU145 cells assessed as cell growth at 7.25 uM after 48 hrs by SRB assay; conditions: DU-145, 48 h, read-out: Activity
[16] = test system: NCI-H522; assay: Cytotoxicity against human NCI-H522 cells assessed as cell growth at 7.25 uM after 48 hrs by SRB assay; conditions: NCI-H522, 48 h, read-out: Activity
[17] = Cytotoxicity against human SNB19 cells assessed as cell growth at 7.25 uM after 48 hrs by SRB assay; conditions: SNB-19, 48 h, read-out: Activity
[18] = Cytotoxicity against human Caki1 cells assessed as cell growth at 7.25 uM after 48 hrs by SRB assay; conditions: CAKI-1, 48 h, read-out: Activity
[19] = test system: MCF7; assay: Cytotoxicity against human MCF7 cells assessed as cell growth at 7.25 uM after 48 hrs by SRB assay; conditions: MCF7, 48 h, read-out: Activity
[20] = Cytotoxicity against human HCC2998 cells assessed as cell growth at 7.25 uM after 48 hrs by SRB assay; conditions: HCC 2998, 48 h, read-out: Activity
[21] = Cytotoxicity against human NCI-ADR-RES cells assessed as cell growth at 7.25 uM after 48 hrs by SRB assay; conditions: read-out: Activity
[22] = Cytotoxicity against human Caki1 cells assessed as cell growth at 2.13 uM after 48 hrs by SRB assay; conditions: CAKI-1, 48 h, read-out: Activity
[23] = Cytotoxicity against human SF268 cells assessed as cell growth at 2.13 uM after 48 hrs by SRB assay; conditions: SF-268, 48 h, read-out: Activity
[24] = Cytotoxicity against human UACC257 cells assessed as cell growth at 2.13 uM after 48 hrs by SRB assay; conditions: UACC-257, 48 h, read-out: Activity
[25] = test system: T47D; assay: Cytotoxicity against human T47D cells assessed as cell growth at 2.13 uM after 48 hrs by SRB assay; conditions: read-out: Activity
[26] = test system: SK-MEL-2; assay: Cytotoxicity against human SK-MEL-2 cells assessed as cell growth at 2.13 uM after 48 hrs by SRB assay; conditions: SK-MEL-2, 48 h, read-out: Activity
[27] = test system: NCI-H23; assay: Cytotoxicity against human NCI-H23 cells assessed as cell growth at 2.13 uM after 48 hrs by SRB assay; conditions: NCI-H23, 48 h, read-out: Activity
[28] = test system: HT-29; assay: Cytotoxicity against human HT-29 cells assessed as cell growth at 2.13 uM after 48 hrs by SRB assay; conditions: HT-29, 48 h, read-out: Activity

For `CC(C)C[C@H](NC(=O)[C@H](CCCCN)NC(=O)[C@H](C)NC(=O)[C@H](CC(C)C)NC(=O)[C@H](CCCCN)NC(=O)[C@H](CCCCN)NC(=O)[C@H](C)NC(=O)[C@H](CC(C)C)NC(=O)[C@H](CCCCN)NC(=O)[C@H](C)NC(=O)[C@H](CC(C)C)NC(=O)[C@H](CCCCN)NC(=O)[C@@H](N)CC(=O)O)C(=O)N[C@@H](C)C(=O)N[C@@H](CCCCN)C(=O)N[C@@H](C)C(=O)N[C@@H](CCCCN)C(N)=O`, the growth at 10 µM [1] was 104%, the growth at 10 µM [2] was 113% and the growth at 10 µM [3] was 94.4%. For the same compound, the growth at 10 µM [4] was 86.1%, the growth at 10 µM [5] was 103% and the growth at 10 µM [6] was 101%. For the same compound, the growth at 10 µM [7] was 107%, the growth at 10 µM [8] was 86.4% and the growth at 10 µM [9] was 94.7%. For the same compound, the growth at 10 µM [10] was 90.7% and the growth at 10 µM [11] was 107%.

Compound `CCCCCCCCCCCCCCCC(=O)NCCCC[C@H](NC(=O)[C@H](C)NC(=O)[C@H](CCCCN)NC(=O)[C@H](C)NC(=O)[C@H](CC(C)C)NC(=O)[C@H](CCCCN)NC(=O)[C@H](C)NC(=O)[C@H](CC(C)C)NC(=O)[C@H](CCCCN)NC(=O)[C@H](CCCCN)NC(=O)[C@H](C)NC(=O)[C@H](CC(C)C)NC(=O)[C@H](CCCCN)NC(=O)[C@H](C)NC(=O)[C@H](CC(C)C)NC(=O)[C@H](CCCCN)NC(=O)[C@@H](N)CC(=O)O)C(N)=O` has a mortality at 7.25 µM [12] of 0%, a growth at 7.25 µM [13] of 102% and a growth at 7.25 µM [14] of 104%. It also gave a growth at 7.25 µM [15] of 123%, a growth at 7.25 µM [16] of 83.5% and a growth at 7.25 µM [17] of 103%. The growth at 7.25 µM [18] was 98.3%, the growth at 7.25 µM [19] was 98.7% and the growth at 7.25 µM [20] was 101%. It also gave a growth at 7.25 µM [21] of 111%.

`CCCCCCCCCCCCCCCCNCCO[C@H]1C[C@H](n2cc(C)c(=O)[nH]c2=O)O[C@@H]1C(=O)NCCCC[C@H](NC(=O)[C@H](C)NC(=O)[C@H](CCCCN)NC(=O)[C@H](C)NC(=O)[C@H](CC(C)C)NC(=O)[C@H](CCCCN)NC(=O)[C@H](C)NC(=O)[C@H](CC(C)C)NC(=O)[C@H](CCCCN)NC(=O)[C@H](CCCCN)NC(=O)[C@H](C)NC(=O)[C@H](CC(C)C)NC(=O)[C@H](CCCCN)NC(=O)[C@H](C)NC(=O)[C@H](CC(C)C)NC(=O)[C@H](CCCCN)NC(=O)[C@@H](N)CC(=O)O)C(N)=O` gave a growth at 2.13 µM [22] of 96.1%, a growth at 2.13 µM [23] of 100% and a growth at 2.13 µM [24] of 75.8%. The growth at 2.13 µM [25] was 91.6%, the growth at 2.13 µM [26] was 111% and the growth at 2.13 µM [27] was 106%. It also gave a growth at 2.13 µM [28] of 102%.
